The text below walks through data of patent US7714146B2, “Azulene-oxindole compounds as multiple-kinase inhibitors and useful as anticancer agents” (Industrial Technology Research Institute, priority 2006, dated 2010).

Holding throughout (assay type): biochemical
For assay [1], the target named is T1, human VEGFR-2 (Val789-Val1356) (Homo sapiens, UniProt P35968).
T1 construct: human VEGFR-2 (Val789-Val1356); GST (N); purchased Cell Signaling Technology; host or cells: baculovirus expression system
T1 sequence (P35968 789-1356): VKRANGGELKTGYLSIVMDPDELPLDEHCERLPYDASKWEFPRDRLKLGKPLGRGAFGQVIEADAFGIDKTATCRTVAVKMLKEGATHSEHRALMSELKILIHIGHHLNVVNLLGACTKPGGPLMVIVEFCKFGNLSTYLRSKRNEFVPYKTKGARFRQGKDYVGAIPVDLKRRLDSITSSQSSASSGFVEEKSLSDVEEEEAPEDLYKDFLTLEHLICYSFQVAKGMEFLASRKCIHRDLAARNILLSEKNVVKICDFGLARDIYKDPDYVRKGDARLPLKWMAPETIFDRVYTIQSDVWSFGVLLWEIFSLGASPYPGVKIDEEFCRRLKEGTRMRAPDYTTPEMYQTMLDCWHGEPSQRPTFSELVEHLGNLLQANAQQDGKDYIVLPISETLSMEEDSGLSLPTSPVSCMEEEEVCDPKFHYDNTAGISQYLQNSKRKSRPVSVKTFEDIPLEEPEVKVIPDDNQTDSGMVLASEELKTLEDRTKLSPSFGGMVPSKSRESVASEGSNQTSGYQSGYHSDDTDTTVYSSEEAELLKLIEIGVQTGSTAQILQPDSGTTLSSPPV
Nature of the assay: KDR kinase assay (HTScan VEGFR-2 kit, DELFIA). As to conditions: for inhibition at 0.1 µM: compound at 0.1 μM, read-out: KDR 0.1 μM, % of inhibition relative to control; for inhibition at 1 µM: compound at 1 μM, read-out: KDR 1 μM, % of inhibition relative to control. The procedure:
(§1) Compounds 1-100 were treated for their efficacy in inhibiting activities of FLT-3, c-KIT, KDR/Flk-1, PDGFR-beta, EGFR, and PKC kinases by biochemical DELFIA (Dissociation Enhanced Lanthanide FIA) assays according to the procedure described below. The assays were conducted by, Division of Cell Engineering, Biomedical Engineering Research Laboratories, Industrial Technology Research Institute, Bldg. 53, 195, sec. 4, Chung Hsing Rd. Chutung, Hsinchu, Taiwan 310, R.O.C.
(§2) The KDR assay was conducted following the protocol described in Protocol for HTScan® VEGFR-2 Kinase Assay Kit (Cell Signaling Technology®). The assay was conducted under the following conditions: KDR source: The GST-Kinase fusion protein was produced using a baculovirus expression system with a construct expressing human VEGFR-2 (Val789-Val1356) (GenBank Accession No. NM_002253) with an amino-terminal GST tag, substrate: 1.5 μM Gastrin Precursor Biotinylated Peptide (with Tyr87 as phosphorylation site), vehicle: 1% DMSO, pre-incubation time/temperature: 5 minutes at room temperature, incubation time/temperature: 30 minutes at room temperature, incubation buffer: 60 mM HEPES pH 7.5, 5 mM MgCl2, 5 mM MnCl2, 3 μM Na3VO4, 1.25 mM DTT, 20 μM ATP, and quantitative method: DELFIA® Assay.

The target of assay [2] is T2, human c-KIT (Thr544-Val976) (Homo sapiens, UniProt P10721).
T2 construct: human c-KIT (Thr544-Val976); GST (N); purchased Cell Signaling Technology; host or cells: baculovirus expression system
T2 sequence (P10721 544-976): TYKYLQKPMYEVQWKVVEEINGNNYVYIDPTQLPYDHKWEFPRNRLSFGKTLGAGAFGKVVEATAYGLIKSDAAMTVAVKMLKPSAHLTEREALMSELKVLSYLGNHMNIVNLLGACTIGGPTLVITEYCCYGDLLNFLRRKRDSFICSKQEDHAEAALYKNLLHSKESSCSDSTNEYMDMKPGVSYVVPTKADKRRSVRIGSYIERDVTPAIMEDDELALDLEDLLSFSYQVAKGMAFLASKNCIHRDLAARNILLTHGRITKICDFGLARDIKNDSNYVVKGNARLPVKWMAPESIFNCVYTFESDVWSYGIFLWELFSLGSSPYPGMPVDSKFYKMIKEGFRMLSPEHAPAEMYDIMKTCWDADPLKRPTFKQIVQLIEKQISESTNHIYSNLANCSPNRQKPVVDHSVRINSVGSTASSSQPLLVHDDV
Nature of the assay: c-KIT kinase assay (HTScan kit, DELFIA). To be noted: for inhibition at 0.1 µM: compound at 0.1 μM, read-out: c-KIT 0.1 μM, % of inhibition relative to control; for inhibition at 1 µM: compound at 1 μM, read-out: c-KIT 1 μM, % of inhibition relative to control; for IC50: read-out: c-KIT kinase inhibition (IC50). The procedure:
as §1
as §2, with “c-KIT” for “KDR”, “c-KIT” for “VEGFR-2”, “GST-c-KIT” for “GST-Kinase”, “c-KIT (Thr544-Val976)” for “VEGFR-2 (Val789-Val1356) (GenBank Accession No. NM_002253)”, “This biotinylated peptide contains the residues surrounding Tyr-996 of KDR,” for “Gastrin Precursor Biotinylated Peptide (with Tyr87 as phosphorylation site),”

The target in assay [3] is T3, human FLT-3 (Arg571-Ser993) (Homo sapiens, UniProt P36888).
T3 construct: human FLT-3 (Arg571-Ser993); GST (N); purchased Cell Signaling Technology; host or cells: baculovirus expression system
T3 sequence (P36888 571-993): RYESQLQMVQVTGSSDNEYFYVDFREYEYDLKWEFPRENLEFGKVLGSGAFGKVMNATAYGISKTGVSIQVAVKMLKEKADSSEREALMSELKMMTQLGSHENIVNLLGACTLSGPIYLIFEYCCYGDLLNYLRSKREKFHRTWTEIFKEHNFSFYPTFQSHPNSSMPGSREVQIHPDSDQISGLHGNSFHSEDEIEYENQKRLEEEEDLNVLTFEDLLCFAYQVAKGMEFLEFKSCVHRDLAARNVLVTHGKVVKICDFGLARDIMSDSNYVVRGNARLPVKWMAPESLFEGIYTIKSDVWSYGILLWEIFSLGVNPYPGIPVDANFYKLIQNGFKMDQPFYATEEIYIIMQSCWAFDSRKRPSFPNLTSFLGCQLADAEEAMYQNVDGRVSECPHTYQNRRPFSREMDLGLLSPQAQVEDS
Nature of the assay: FLT-3 kinase assay (HTScan kit, DELFIA). As to conditions: for inhibition at 0.1 µM: compound at 0.1 μM, read-out: FLT-3 0.1 μM, % of inhibition relative to control; for inhibition at 1 µM: compound at 1 μM, read-out: FLT-3 1 μM, % of inhibition relative to control; for IC50: read-out: FLT-3 kinase inhibition (IC50). Here is the method:
as §1
as §2, with “FLT-3” for “KDR”, “FLT-3” for “VEGFR-2”, “GST-kinase” for “GST-Kinase”, “FLT-3 (Arg571-Ser993)” for “VEGFR-2 (Val789-Val1356)”, “accession” for “Accession”, “NM_004119)” for “NM_002253)”

Consider `O=C1Nc2ccc(F)cc2/C1=C/c1cc(F)c2cccccc1-2` [Compound 60, 5-Fluoro-3-(3-fluoro-azulen-1-ylmethylene)-1,3-dihydro-indol-2-one], for which the values for the inhibition at 0.1 µM in assay [1], in assay [2] and in assay [3] were 55.6%, 28.3% and 52.6%, respectively. Also, the inhibition at 1 µM in assay [1] is 40.3%; in assay [2], 28.3%; in assay [3] it was 52.8%.
`Cc1cc(/C=C2/C(=O)Nc3ccc(F)cc32)c2ccccc(OCCCN(C)C)c1-2` [Compound 68, 3-[4-(3-Dimethylamino-propoxy)-3-methyl-azulen-1-ylmethylene]-5-fluoro-1,3-dihydro-indol-2-one]: the figures for the inhibition at 0.1 µM in assay [1], in assay [2] and in assay [3] were 38.6%, 34.4% and 74.3%, respectively. Besides, the results for the inhibition at 1 µM in assay [1], in assay [2] and in assay [3] were 63.8%, 34.4% and 96.8%, respectively. The results for the IC50 in assay [1] (read-out: KDR kinase inhibition (IC50)), in assay [2] and in assay [3] were 500 nM, over 1000 nM and 25.3 nM, respectively.
Regarding `Cc1ccc2c(c1)/C(=C\c1c3cccccc-3nc1N)C(=O)N2` [Compound 54, 3-(2-Amino-cyclohepta[b]pyrrol-3-ylmethylene)-5-methyl-1,3-dihydro-indol-2-one], the inhibition at 0.1 µM turned out to be 17% in assay [1], 27.5% in assay [2] and 33.3% in assay [3]. In addition, the inhibition at 1 µM in assay [1] is 25.7%; in assay [2], 27.5%; in assay [3], 52.5%.
For `O=C1/C(=C\c2ccc3cccccc2-3)c2ccccc2N1C(c1ccccc1)c1ccccc1` [Compound 4, 3-Azulen-1-ylmethylene-1-benzhydryl-1,3-dihydro-indol-2-one], in assay [3], the inhibition at 1 µM is 14.7%.
Turning to `Cc1cc(C=C2C(=O)Nc3ccc(S(=O)(=O)NCCCN4CCN(C)CC4)cc32)c2cccccc1-2` [Compound 82, 3-(3-Methyl-azulen-1-ylmethylene)-2-oxo-2,3-dihydro-1H-indole-5-sulfonic acid [3-(4-methyl-piperazin-1-yl)-propyl]-amide], the inhibition at 0.1 µM in assay [1] is 17.6%; in assay [2] it was 30.7%; in assay [3] it was 12.8%. For the same compound, the inhibition at 1 µM in assay [1] turned out to be 18.5%; in assay [2] it was 30.7%; in assay [3], 13.5%.
Regarding `Cc1c2cccccc-2c(C)c1/C=C1/C(=O)Nc2ccc(F)cc21` [Compound 66, 3-(1,3-Dimethyl-azulen-2-ylmethylene)-5-fluoro-1,3-dihydro-indol-2-one], the inhibition at 0.1 µM in assay [1] was 14.8%; in assay [2], 33.7%; in assay [3], 15.8%. In addition, the figures for the inhibition at 1 µM in assay [1], in assay [2] and in assay [3] were 40.6%, 33.7% and 19.6%, respectively.
Take `Cc1[nH]c(/C=C2\C(=O)Nc3ccc(F)cc32)c2ccc(=O)ccc12` [Compound 63, 1-(5-Fluoro-2-oxo-1,2-dihydro-indol-3-ylidenemethyl)-3-methyl-2H-cyclohepta[c]pyrrol-6-one]: the results for the inhibition at 0.1 µM in assay [1], in assay [2] and in assay [3] were 6.7%, 57.1% and 50.5%, respectively. Also, the inhibition at 1 µM in assay [1] stood at 32.2%; in assay [2] it was 57.1%; in assay [3] it was 55.7%.
As to `CN(C)CCNC(=O)c1cc(/C=C2/C(=O)Nc3ccc(F)cc32)c2cccccc1-2` [Compound 67, 3-(5-Fluoro-2-oxo-1,2-dihydro-indol-3-ylidenemethyl)-azulene-1-carboxylic acid (2-dimethylamino-ethyl)-amide], the results for the inhibition at 1 µM in assay [1], in assay [2] and in assay [3] were 7.4%, 30.2% and 14%, respectively. The inhibition at 0.1 µM in assay [2] is 30.2%.
As to `Cc1cc(/C=C2/C(=O)N(Cc3ccc(C#N)cc3)c3ccccc32)c2c(C)ccc(C(C)C)cc1-2` [Compound 74, 4-[3-(5-Isopropyl-3,8-dimethyl-azulen-1-ylmethylene)-2-oxo-2,3-dihydro-indol-1-ylmethyl]-benzonitrile], in assay [1], the inhibition at 0.1 µM was found to be 5.1% and the inhibition at 1 µM is 70.9%. Also, in assay [3], the inhibition at 0.1 µM is 45.8% and the inhibition at 1 µM was determined as 69.4%.
For `Cc1cc(/C=C2\C(=O)Nc3ccc(F)cc32)c2ccccc(OCCCN(C)C)c1-2` [Compound 95, 3-[4-(3-Dimethylamino-propoxy)-3-methyl-azulen-1-ylmethylene]-5-fluoro-1,3-dihydro-indol-2-one], in assay [1], the inhibition at 0.1 µM was found to be 35.5% and the inhibition at 1 µM is 93.6%. For the same compound, in assay [2], the inhibition at 0.1 µM stood at 65.1%, the inhibition at 1 µM is 65.1% and the IC50 amounted to 158 nM. Also, in assay [3], the inhibition at 0.1 µM is 70.9%, the inhibition at 1 µM came to 98.4% and the IC50 was 9.3 nM.
In the case of `O=C1Nc2ccc(Cl)cc2/C1=C/c1ccc2cccccc1-2` [Compound 23, 3-Azulen-1-ylmethylene-5-chloro-1,3-dihydro-indol-2-one], in assay [1], the inhibition at 0.1 µM is 39.5% and the inhibition at 1 µM is 28.3%. For the same compound, in assay [3], the inhibition at 0.1 µM is 18.6% and the inhibition at 1 µM was 43.4%.
Consider `Cc1cc(C=C2C(=O)Nc3ccc(S(=O)(=O)Nc4ccccn4)cc32)c2cccccc1-2` [Compound 77], for which, in assay [2], the inhibition at 0.1 µM was 23.4% and the inhibition at 1 µM stood at 23.4%.
Turning to `COC(=O)c1cc(/C=C2\C(=O)Nc3ccc(F)cc32)c2cccccc1-2` [Compound 76, 3-(5-Fluoro-2-oxo-1,2-dihydro-indol-3-ylidenemethyl)-azulene-1-carboxylic acid methyl ester], in assay [2], the inhibition at 0.1 µM is 28.2% and the inhibition at 1 µM was 28.2%.
Turning to `COC(=O)C1C2=CC=CC=C(OC)C2=C(/C=C2\C(=O)Nc3ccc(F)cc32)C1OC` (centres unmarked) [Compound 69, 3-(5-Fluoro-2-oxo-1,2-dihydro-indol-3-ylidenemethyl)-2,4-dimethoxy-1,2-dihydro-azulene-1-carboxylic acid methyl ester], the inhibition at 0.1 µM is 32.9% in assay [1] and 17.2% in assay [3]. Further, in assay [1], the inhibition at 1 µM came to 42.5%.
In the case of `COc1ccc(CN2C(=O)/C(=C/c3cc(C)c4cc(C(C)C)ccc(C)c3-4)c3ccccc32)cc1` [Compound 73, 3-(5-Isopropyl-3,8-dimethyl-azulen-1-ylmethylene)-1-(4-methoxy-benzyl)-1,3-dihydro-indol-2-one], the inhibition at 0.1 µM in assay [1] was determined as 40.4%; in assay [3], 33.9%. The inhibition at 1 µM in assay [1] turned out to be 52.4%; in assay [3] it was 32.8%.

What is called inhibition is the change of the read-out against control, counted positive when it falls. In general, IC50 refers to the concentration needed to halve the response being measured.
